Reference: ChEMBL document CHEMBL5352484, “Discovery of a potent and long-acting Xenopus GLP-1-based GLP-1/glucagon/Y2 receptor triple agonist” (Eur J Med Chem, 2023)
Activity calls are given as the source filed them. The calls are words filed in the database; no cut-off is given here.

How the values were obtained:
[1] = target: Glucagon-like peptide 1 receptor (Homo sapiens, UniProt P43220); test: Agonist activity at GLP-1R (unknown origin) expressed in HEK293 cells assessed as cAMP accumulation incubated for 30 mins by HTRF method; type: functional, cell-based
Glucagon receptor = Glucagon receptor (Homo sapiens, UniProt P47871); test: Agonist activity at GCGR (unknown origin) expressed in HEK293 cells assessed as cAMP accumulation incubated for 30 mins by HTRF method; type: functional, cell-based
Mus musculus [2] = test: Anorexigenic effect in ICR mouse assessed as inhibition of food intake at 30 nmol/kg, ip pretreated with Jant-4 for 30 mins followed by compound addition for 30 mins; type: functional, organism-based
Mus musculus [3] = test: Hypoglycemic activity in ICR mouse assessed as decrease in blood glucose level at 30 nmol/kg, ip pretreated for 30 mins followed by glucose addition and measured upto 120 mins in presence of 60 nmol/kg Lys7(C16-gammaGlu)PYY3-36 by OGTT; type: functional, organism-based; details: time <= 150.0 min
Mus musculus [4] = test: Reduction in serum AST level in C57BL/6J mouse at 30 nmol/kg, sc administered for 21 days; type: functional, organism-based; details: time 21.0 day
Mus musculus [5] = test: Hypoglycemic activity in ICR mouse at 30 nmol/kg, ip pretreated with JNJ-31020028 for 30 mins prior to compound addition for 30 mins followed by glucose addition and measured upto 120 mins by OGTT; type: functional, organism-based; details: time <= 150.0 min
Mus musculus [6] = test: Antiobesity activity in ICR mouse assessed as reduction in body weight at 30 nmol/kg, sc administered twice daily; type: functional; set-up: scale not given: the % may be the effect or the level left
Mus musculus [7] = test: Anti-diabetic activity in C57BL/6J mouse model of high-fat diet induced obesity assessed as improved in glucose tolerance at 30 nmol/kg, sc administered twice daily for 7 days in presence of 60 nmol/kg Lys7(C16-gammaGlu)PYY3-36; type: functional, organism-based; details: time 7.0 day
Mus musculus [8] = test: Anti-obesity activity in C57BL/6J mouse model of high-fat diet induced obesity assessed as decrease in body weight at 30 nmol/kg, sc administered twice daily for 7 days in presence of 60 nmol/kg Lys7(C16-gammaGlu)PYY3-36; type: functional; set-up: scale not given: the % may be the effect or the level left; details: time 7 day
Mus musculus [9] = test: Reduction in liver TG level in C57BL/6J mouse at 30 nmol/kg, sc administered for 21 days; type: functional, organism-based; details: time 21.0 day
Mus musculus [10] = test: Hypoglycemic activity in ICR mouse at 30 nmol/kg, ip pretreated with Jant-4 for 30 mins prior to compound addition for 30 mins followed by glucose addition and measured upto 120 mins by OGTT; type: functional, organism-based; details: time <= 150.0 min
Mus musculus [11] = test: Anti-obesity activity in C57BL/6J mouse model of high-fat diet induced obesity assessed as decrease in food intake at 30 nmol/kg, sc administered twice daily for 7 days in presence of 60 nmol/kg Lys7(C16-gammaGlu)PYY3-36; type: functional, organism-based; details: time 7.0 day
Mus musculus [12] = test: Antiobesity activity in ICR mouse assessed as reduction in food intake at […], sc measured upto 24 hrs; type: functional; set-up: scale not given: the % may be the effect or the level left
Mus musculus [13] = test: Reduction in saccharin consumption in ip dosed ICR mouse assessed as reduction in saccharin preference ratio pretreated for 40 mins with saccharin followed by compound addition; type: functional, organism-based
Mus musculus [14] = test: Reduction in liver TC level in C57BL/6J mouse at 30 nmol/kg, sc administered for 21 days; type: functional, organism-based; details: time 21.0 day
Mus musculus [15] = test: Antiobesity activity in C57BL/6J mouse assessed as reduction in body weight at 10 nmol/kg, sc after 21 days; type: functional; set-up: scale not given: the % may be the effect or the level left; details: time 21 day
Mus musculus [16] = test: Antiobesity activity in ICR mouse assessed as reduction in food intake at […], sc measured upto 24 hrs in presence of Lys7(C16-gammaGlu)PYY3-36; type: functional; set-up: scale not given: the % may be the effect or the level left
Mus musculus [17] = test: Hypoglycemic activity in ICR mouse assessed as decrease in blood glucose level at 30 nmol/kg, ip pretreated for 30 mins followed by glucose addition and measured upto 120 mins by OGTT; type: functional, organism-based; details: time <= 150.0 min
Mus musculus [18] = test: Anti-obesity activity in C57BL/6J mouse model of high-fat diet induced obesity assessed as decrease in body weight at 30 nmol/kg, sc administered twice daily for 7 days; type: functional; set-up: scale not given: the % may be the effect or the level left; details: time 7 day
Mus musculus [19] = test: Hypoglycemic activity in ICR mouse assessed as reduction in glucose excursion at 30 nmol/kg, ip measured upto 120 mins; type: functional, organism-based
Mus musculus [20] = test: Reduction in serum ALT level in C57BL/6J mouse at 30 nmol/kg, sc administered for 21 days; type: functional, organism-based; details: time 21.0 day

Sequence of Glucagon receptor (P47871 whole entry): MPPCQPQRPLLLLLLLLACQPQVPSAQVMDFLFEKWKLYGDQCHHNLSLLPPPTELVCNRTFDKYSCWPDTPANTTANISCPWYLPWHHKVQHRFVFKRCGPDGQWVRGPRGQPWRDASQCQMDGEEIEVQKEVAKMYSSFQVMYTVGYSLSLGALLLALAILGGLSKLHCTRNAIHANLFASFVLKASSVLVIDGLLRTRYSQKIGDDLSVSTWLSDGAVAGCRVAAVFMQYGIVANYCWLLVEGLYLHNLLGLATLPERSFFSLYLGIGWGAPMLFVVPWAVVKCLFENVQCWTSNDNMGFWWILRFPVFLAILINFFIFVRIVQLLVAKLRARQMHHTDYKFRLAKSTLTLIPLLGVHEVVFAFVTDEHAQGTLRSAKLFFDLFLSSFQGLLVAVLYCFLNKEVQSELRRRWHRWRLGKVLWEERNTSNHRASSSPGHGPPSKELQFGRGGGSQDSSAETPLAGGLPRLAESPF
Sequence of Glucagon-like peptide 1 receptor (P43220 whole entry): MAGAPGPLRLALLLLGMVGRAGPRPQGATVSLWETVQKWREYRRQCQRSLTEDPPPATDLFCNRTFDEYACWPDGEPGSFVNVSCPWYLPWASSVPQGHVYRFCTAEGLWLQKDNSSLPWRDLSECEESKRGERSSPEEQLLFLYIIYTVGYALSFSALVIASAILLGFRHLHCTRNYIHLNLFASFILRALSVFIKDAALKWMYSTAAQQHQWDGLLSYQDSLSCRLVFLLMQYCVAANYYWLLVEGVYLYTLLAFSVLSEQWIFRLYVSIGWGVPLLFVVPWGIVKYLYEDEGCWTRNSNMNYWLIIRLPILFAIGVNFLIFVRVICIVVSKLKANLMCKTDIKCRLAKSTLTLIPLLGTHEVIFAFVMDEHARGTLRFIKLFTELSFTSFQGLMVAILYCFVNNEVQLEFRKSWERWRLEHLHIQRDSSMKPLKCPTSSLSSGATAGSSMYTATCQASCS

Question: Which results are given for `CC[C@H](C)[C@H](NC(=O)[C@H](Cc1ccccc1)NC(=O)[C@H](CC(=O)O)NC(=O)[C@H](CCC(N)=O)NC(=O)[C@H](C)NC(=O)[C@H](CCCNC(=N)N)NC(=O)[C@H](CCCNC(=N)N)NC(=O)[C@H](CO)NC(=O)[C@H](CC(=O)O)NC(=O)[C@H](CCCCN)NC(=O)[C@H](Cc1ccc(O)cc1)NC(=O)[C@H](CCCCN)NC(=O)[C@H](CO)NC(=O)[C@@H](NC(=O)[C@H](CC(=O)O)NC(=O)[C@H](CC(N)=O)NC(=O)[C@@H](NC(=O)[C@H](Cc1ccc(O)cc1)NC(=O)[C@@H](NC(=O)CNC(=O)[C@H](CCC(N)=O)NC(=O)[C@@H](CO)NC(=O)[C@@H](N)Cc1c[nH]cn1)[C@@H](C)O)[C@@H](C)O)C(C)C)C(=O)N[C@@H](CCC(=O)O)C(=O)N[C@@H](Cc1c[nH]c2ccccc12)C(=O)N[C@@H](CC(C)C)C(=O)N[C@@H](CCCCN)C(=O)N[C@@H](CC(N)=O)C(=O)NCC(=O)NCC(=O)N1CCC[C@H]1C(=O)N[C@@H](CO)C(=O)N[C@@H](CO)C(=O)NCC(=O)N[C@@H](C)C(=O)N1CCC[C@H]1C(=O)N1CCC[C@H]1C(=O)N1CCC[C@H]1C(=O)N[C@@H](CO)C(=O)N[C@@H](CS)C(N)=O`?
Answer: EC50 [1]: 0.048 nM; EC50 (Glucagon receptor): 0.19 nM

Question: With `CCCCCCCCCCCCCCCC(=O)N[C@@H](CCC(=O)NCCCC[C@H](NC(=O)[C@H](Cc1ccc(O)cc1)NC(=O)[C@H](CCCCN)NC(=O)[C@H](CO)NC(=O)[C@@H](NC(=O)[C@H](CC(=O)O)NC(=O)[C@H](CC(N)=O)NC(=O)[C@@H](NC(=O)[C@H](Cc1ccc(O)cc1)NC(=O)[C@@H](NC(=O)CNC(=O)[C@H](CCC(N)=O)NC(=O)[C@@H](CO)NC(=O)[C@@H](N)Cc1c[nH]cn1)[C@@H](C)O)[C@@H](C)O)C(C)C)C(=O)N[C@@H](CC(=O)O)C(=O)N[C@@H](CO)C(=O)N[C@@H](CCCNC(=N)N)C(=O)N[C@@H](CCCNC(=N)N)C(=O)N[C@@H](C)C(=O)N[C@@H](CCC(N)=O)C(=O)N[C@@H](CC(=O)O)C(=O)N[C@@H](Cc1ccccc1)C(=O)N[C@H](C(=O)N[C@@H](CCC(=O)O)C(=O)N[C@@H](Cc1c[nH]c2ccccc12)C(=O)N[C@@H](CC(C)C)C(=O)N[C@@H](CCCCN)C(=O)N[C@@H](CC(N)=O)C(=O)NCC(=O)NCC(=O)N1CCC[C@H]1C(=O)N[C@@H](CO)C(=O)N[C@@H](CO)C(=O)NCC(=O)N[C@@H](C)C(=O)N1CCC[C@H]1C(=O)N1CCC[C@H]1C(=O)N1CCC[C@H]1C(=O)N[C@@H](CO)C(N)=O)[C@@H](C)CC)C(=O)O` as the compound, how does the Activity (Mus musculus [2]) read?
Answer: inactive

Question: What about the Activity (Mus musculus [3]) of the same compound?
Answer: Active

Question: What about the Activity (Mus musculus [4]) of the same compound?
Answer: Active

Question: And the Activity (Mus musculus [5])?
Answer: inactive

Question: What about the Activity (Mus musculus [6]) of the same compound?
Answer: 15.6%

Question: And the Activity (Mus musculus [7])?
Answer: Active

Question: And the Activity (Mus musculus [8])?
Answer: 28.5%

Question: What about the Activity (Mus musculus [9]) of the same compound?
Answer: Active

Question: And the Activity (Mus musculus [10])?
Answer: inactive

Question: What about the Activity (Mus musculus [11]) of the same compound?
Answer: Active

Question: And the Activity (Mus musculus [12])?
Answer: 35%

Question: What about the Activity (Mus musculus [13]) of the same compound?
Answer: Dose-Dependent Effect

Question: What about the Activity (Mus musculus [14]) of the same compound?
Answer: Active

Question: What about the Activity (Mus musculus [15]) of the same compound?
Answer: 27%

Question: What about the Activity (Mus musculus [16]) of the same compound?
Answer: 66%

Question: And the Activity (Mus musculus [17])?
Answer: Active

Question: And the Activity (Mus musculus [18])?
Answer: 16.6%

Question: What about the Activity (Mus musculus [19]) of the same compound?
Answer: Active

Question: And the Activity (Mus musculus [20])?
Answer: Active

Question: What does the source list for `CC[C@H](C)[C@H](NC(=O)[C@H](Cc1ccccc1)NC(=O)[C@H](CC(=O)O)NC(=O)[C@H](CCC(N)=O)NC(=O)[C@H](C)NC(=O)[C@H](CCCNC(=N)N)NC(=O)[C@H](CCCNC(=N)N)NC(=O)[C@H](CO)NC(=O)[C@H](CC(=O)O)NC(=O)[C@H](CCCCN)NC(=O)[C@H](CCC(N)=O)NC(=O)[C@H](CCCCN)NC(=O)[C@H](CO)NC(=O)[C@H](CC(C)C)NC(=O)[C@H](CC(=O)O)NC(=O)[C@H](CO)NC(=O)[C@@H](NC(=O)[C@H](Cc1ccccc1)NC(=O)[C@@H](NC(=O)CNC(=O)[C@H](CCC(N)=O)NC(=O)[C@@H](CO)NC(=O)[C@@H](N)Cc1c[nH]cn1)[C@@H](C)O)[C@@H](C)O)C(=O)N[C@@H](CCC(=O)O)C(=O)N[C@@H](Cc1c[nH]c2ccccc12)C(=O)N[C@@H](CC(C)C)C(=O)N[C@@H](CCCCN)C(=O)N[C@@H](CC(N)=O)C(=O)NCC(=O)NCC(=O)N1CCC[C@H]1C(=O)N[C@@H](CO)C(=O)N[C@@H](CO)C(=O)NCC(=O)N[C@@H](C)C(=O)N1CCC[C@H]1C(=O)N1CCC[C@H]1C(=O)N1CCC[C@H]1C(=O)N[C@@H](CO)C(=O)N[C@@H](CS)C(N)=O`?
Answer: EC50 [1]: 0.087 nM; EC50 (Glucagon receptor): 0.42 nM
